Columns and labels:
Format in all cases: cell-based, murine
Wt-BaF3 = experiment: Parental Ba/F3 cell proliferation (CellTiter Glo); details: Mus musculus, parental BaF/3 cells, 48 hours
Method: (§1) The murine cell line used is the BaF/3 cell line transformed with BCR/ABL cDNA (BaF/3-p210) or BCR/ABL-T315I mutant (Ba/F3-p210-T315I). These cells are maintained in RPMI/10% fetal calf serum (RPMI/FCS) supplemented with penicillin 50 μg/mL, streptomycin 50 μg/mL and L-glutamine […]. Untransformed BaF/3 cells (Wt-BaF/3) are similarly maintained with the addition of 15% of WEHI conditioned medium as a source of IL3.
(§2) The BaF/3 cell line transformed with oncogenic NRAS or KRAS (BaF/3-NRASD12 or BaF/3-KRASD12) and the parental BaF/3 cells were used to measure the abilities of compounds of the invention to suppress RAS transformation (Table 5). Cells were seeded at a density of 5000 cells/well into 96-well plates. […] The background control wells to which media with no cells added and the vehicle control wells were included on each plate in triplicate. Cell viability was determined using CellTiter Glo Assay (Promega) according to manufacture's instruction with a minor modification of diluting 1 part CellTiter Glo reagent to 4 parts phosphate buffered saline (PBS) before use. The luminescence value was read out by an Envision (PerkinElmer).

BaF3-BCR/ABL = biological target: T1, BaF3-BCR/ABL (Homo sapiens, UniProt P00519); experiment: Antiproliferative activity, kinase-dependent Ba/F3 cells (MTT/MTS); details: 48 hours, cell viability, read-out: BCR/ABL IC50
T1 construct: fused on or other part: P11274 (Breakpoint cluster region protein)
Method: (§3) Following up on the kinome data, the ability of compounds disclosed in the present invention to inhibit proliferation of cells that are dependent on selected protein kinases was tested. […] In addition, compounds were assayed to measure their capacity to inhibit TIE1, LYN, EML4-ALK, INSR and HCK kinases.
as §1
(§4) Cells were seeded at a density of 20,000 cells/well into 96-well plates.
(§5) The background control wells to which media with no cells added and the vehicle control wells were included on each plate in triplicate. Cell viability was determined using MTT (Sigma, St. Louis, Mo., USA) and MTS (Promega, Madison, Wis., USA), according to the manufacturer's instructions. Results were analyzed using GraphPad Prism 5.0 (GraphPad Software, San Diego, Calif.) and IC50 values were calculated from cell viability dose-response curves and defined as the concentration of compound needed to reduce cell viability to 50% of a vehicle control (DMSO) (Table 3).

BaF3-NRASD12 = experiment: Oncogenic RAS dependent cell proliferation (CellTiter Glo); details: Mus musculus, BaF3-NRASD12 cells, 48 hours, read-out: NRas-BaF3 IC50
Method: as §2

BaF3-KRASD12 = experiment: as above; details: Mus musculus, BaF3-KRASD12 cells, 48 hours, read-out: KRas-BaF3 IC50
Method: as §2

BaF3-TEL-LYN = biological target: T2, BaF3-TEL-LYN (Homo sapiens, UniProt P07948); experiment: Antiproliferative activity, kinase-dependent Ba/F3 cells (MTT/MTS); details: 48 hours, cell viability, read-out: tel-LYN IC50
T2 construct: fused on or other part: P41212 (Transcription factor ETV6)
Method: as §3, §1, §4, §5
(§6) Cell proliferation assays of compounds of the invention against TIE1, LYN, EML4-ALK, INSR and Hck were conducted using identical methods as described above for BCR/ABL, except that BaF3-TEL-TIE1, BaF3-TEL-LYN, BaF3-EML4-ALK, BaF3-TEL-INSR, and BaF3-TEL-HCK are used instead of BaF3-BCR/ABL (Table 3 and 4).

BaF3-EML4-ALK = biological target: T3, BaF3-EML4-ALK (Homo sapiens, UniProt Q9UM73); experiment: as above; details: 48 hours, cell viability, read-out: EML4-ALK IC50
T3 construct: fused on or other part: Q9HC35 (Echinoderm microtubule-associated protein-like 4)
Method: as §3, §1, §4, §5, §6

BaF3-TEL-INSR = biological target: T4, BaF3-TEL-INSR (Homo sapiens, UniProt P06213); experiment: as above; details: 48 hours, cell viability, read-out: Tel-INSR IC50
T4 construct: fused on or other part: P41212 (Transcription factor ETV6)
Method: as §3, §1, §4, §5, §6

BaF3-TEL-HCK = biological target: T5, BaF3-TEL-HCK (Homo sapiens, UniProt P08631); experiment: as above; details: 48 hours, cell viability, read-out: Tel-HCK IC50
T5 construct: fused on or other part: P41212 (Transcription factor ETV6)
Method: as §3, §1, §4, §5, §6

BaF3-TEL-TIE1 = biological target: T6, BaF3-TEL-TIE1 (Homo sapiens, UniProt P35590); experiment: as above; details: 48 hours, cell viability, read-out: tel-TIE1 IC50
T6 construct: fused on or other part: P41212 (Transcription factor ETV6)
Method: as §3, §1, §4, §5, §6

BaF3-BCR/ABL-T315I = biological target: T7, BaF3-BCR/ABL-T315I (Homo sapiens, UniProt P00519, T315I, cells depend on it); experiment: as above; details: 48 hours, cell viability, read-out: BCR/ABL T315I IC50
T7 construct: fused on or other part: P11274 (Breakpoint cluster region protein)
Method: as §3, §1, §4, §5

T2 sequence (P07948 whole entry, change not shown, the tested form may be a part): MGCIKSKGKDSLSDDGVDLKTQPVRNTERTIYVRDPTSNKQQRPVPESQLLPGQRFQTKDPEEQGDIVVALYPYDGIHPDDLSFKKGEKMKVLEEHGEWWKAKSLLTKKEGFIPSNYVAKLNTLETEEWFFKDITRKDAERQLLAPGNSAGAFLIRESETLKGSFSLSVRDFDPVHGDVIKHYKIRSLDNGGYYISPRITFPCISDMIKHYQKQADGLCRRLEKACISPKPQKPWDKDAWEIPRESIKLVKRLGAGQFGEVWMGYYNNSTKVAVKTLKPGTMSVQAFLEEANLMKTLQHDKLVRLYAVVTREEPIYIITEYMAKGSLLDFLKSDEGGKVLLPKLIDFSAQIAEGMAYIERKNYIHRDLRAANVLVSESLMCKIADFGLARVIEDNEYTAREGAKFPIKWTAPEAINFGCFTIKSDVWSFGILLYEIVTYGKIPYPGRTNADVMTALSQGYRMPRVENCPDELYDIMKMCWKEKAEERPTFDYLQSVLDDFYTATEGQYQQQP
T4 sequence (P06213 whole entry, stated change not applied, the tested form may be a part): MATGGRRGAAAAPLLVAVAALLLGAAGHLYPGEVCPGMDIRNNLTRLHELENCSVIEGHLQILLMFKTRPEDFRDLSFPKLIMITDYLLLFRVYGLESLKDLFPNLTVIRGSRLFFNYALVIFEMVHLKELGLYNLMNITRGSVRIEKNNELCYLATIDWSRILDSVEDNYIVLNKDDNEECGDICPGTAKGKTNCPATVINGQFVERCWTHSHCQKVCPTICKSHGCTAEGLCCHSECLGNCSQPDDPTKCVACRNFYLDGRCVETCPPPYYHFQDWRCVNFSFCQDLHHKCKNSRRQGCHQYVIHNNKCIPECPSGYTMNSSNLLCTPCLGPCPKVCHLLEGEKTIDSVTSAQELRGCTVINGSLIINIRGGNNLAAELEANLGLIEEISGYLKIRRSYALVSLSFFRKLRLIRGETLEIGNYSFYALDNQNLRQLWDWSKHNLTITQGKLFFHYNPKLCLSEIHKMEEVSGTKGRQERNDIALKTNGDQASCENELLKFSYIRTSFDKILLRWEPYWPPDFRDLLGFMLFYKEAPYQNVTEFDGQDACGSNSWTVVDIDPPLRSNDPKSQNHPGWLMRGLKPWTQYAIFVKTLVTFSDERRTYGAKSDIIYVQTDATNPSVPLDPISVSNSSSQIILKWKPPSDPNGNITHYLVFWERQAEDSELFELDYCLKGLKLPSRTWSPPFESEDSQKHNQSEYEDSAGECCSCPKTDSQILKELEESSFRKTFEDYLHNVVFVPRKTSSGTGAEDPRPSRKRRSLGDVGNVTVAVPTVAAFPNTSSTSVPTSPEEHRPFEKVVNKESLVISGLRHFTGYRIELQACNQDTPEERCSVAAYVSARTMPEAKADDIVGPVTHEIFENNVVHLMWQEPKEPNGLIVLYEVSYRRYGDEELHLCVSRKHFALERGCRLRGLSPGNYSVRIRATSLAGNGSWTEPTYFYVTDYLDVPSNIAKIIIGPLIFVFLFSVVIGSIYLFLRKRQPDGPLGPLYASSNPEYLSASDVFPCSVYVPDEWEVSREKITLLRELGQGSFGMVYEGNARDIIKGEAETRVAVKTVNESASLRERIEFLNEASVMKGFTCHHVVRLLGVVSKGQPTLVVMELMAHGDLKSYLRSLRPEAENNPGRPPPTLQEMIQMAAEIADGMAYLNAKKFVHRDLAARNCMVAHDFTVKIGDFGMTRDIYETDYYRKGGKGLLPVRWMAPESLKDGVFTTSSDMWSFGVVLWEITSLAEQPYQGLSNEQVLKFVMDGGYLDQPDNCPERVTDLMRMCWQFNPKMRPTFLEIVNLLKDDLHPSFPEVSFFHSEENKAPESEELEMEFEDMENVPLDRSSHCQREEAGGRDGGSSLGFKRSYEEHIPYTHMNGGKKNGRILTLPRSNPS
T3 sequence (Q9UM73 whole entry, change not shown, the tested form may be a part): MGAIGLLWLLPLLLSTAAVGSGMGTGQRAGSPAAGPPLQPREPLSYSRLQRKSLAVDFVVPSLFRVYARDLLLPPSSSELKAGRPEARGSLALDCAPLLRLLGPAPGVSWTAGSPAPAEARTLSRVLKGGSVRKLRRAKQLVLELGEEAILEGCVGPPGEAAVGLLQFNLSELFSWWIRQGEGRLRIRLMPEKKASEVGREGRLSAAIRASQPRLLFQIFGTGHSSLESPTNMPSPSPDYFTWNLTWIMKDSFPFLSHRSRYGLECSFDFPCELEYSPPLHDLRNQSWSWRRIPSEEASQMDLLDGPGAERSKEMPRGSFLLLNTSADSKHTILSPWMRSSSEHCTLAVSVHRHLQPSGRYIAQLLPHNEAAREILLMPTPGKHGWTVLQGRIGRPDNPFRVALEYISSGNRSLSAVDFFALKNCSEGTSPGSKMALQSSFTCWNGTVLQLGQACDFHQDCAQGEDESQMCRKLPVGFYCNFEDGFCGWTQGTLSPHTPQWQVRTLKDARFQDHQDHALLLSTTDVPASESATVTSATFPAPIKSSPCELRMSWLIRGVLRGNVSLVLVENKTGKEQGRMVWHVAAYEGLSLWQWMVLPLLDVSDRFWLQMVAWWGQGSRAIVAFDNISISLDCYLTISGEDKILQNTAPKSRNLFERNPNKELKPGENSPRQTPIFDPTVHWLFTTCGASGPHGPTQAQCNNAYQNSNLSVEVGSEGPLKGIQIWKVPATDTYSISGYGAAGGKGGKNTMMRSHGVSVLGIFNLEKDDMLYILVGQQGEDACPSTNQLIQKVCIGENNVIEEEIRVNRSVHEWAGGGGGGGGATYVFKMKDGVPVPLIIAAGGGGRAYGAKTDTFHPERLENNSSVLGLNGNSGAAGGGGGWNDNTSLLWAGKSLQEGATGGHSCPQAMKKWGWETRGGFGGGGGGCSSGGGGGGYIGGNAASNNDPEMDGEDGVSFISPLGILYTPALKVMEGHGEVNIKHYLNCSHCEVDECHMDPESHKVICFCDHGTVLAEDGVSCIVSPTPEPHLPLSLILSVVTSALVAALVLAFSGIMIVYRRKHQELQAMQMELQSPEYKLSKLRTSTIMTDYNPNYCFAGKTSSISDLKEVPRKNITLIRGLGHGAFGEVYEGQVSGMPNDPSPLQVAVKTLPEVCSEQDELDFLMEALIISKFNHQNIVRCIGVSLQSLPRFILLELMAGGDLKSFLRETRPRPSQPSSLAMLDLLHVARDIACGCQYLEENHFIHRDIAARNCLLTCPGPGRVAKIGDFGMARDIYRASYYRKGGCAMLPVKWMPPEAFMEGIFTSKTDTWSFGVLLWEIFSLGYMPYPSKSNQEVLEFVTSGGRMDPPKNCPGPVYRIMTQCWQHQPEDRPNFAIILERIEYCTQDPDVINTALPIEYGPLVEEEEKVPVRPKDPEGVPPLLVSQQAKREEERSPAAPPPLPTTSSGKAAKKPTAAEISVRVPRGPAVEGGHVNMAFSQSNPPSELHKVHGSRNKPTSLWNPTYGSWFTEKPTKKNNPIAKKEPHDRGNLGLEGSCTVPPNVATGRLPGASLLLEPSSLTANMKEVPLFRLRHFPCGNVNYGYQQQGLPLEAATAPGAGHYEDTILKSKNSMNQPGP
T5 sequence (P08631 whole entry, change not shown, the tested form may be a part): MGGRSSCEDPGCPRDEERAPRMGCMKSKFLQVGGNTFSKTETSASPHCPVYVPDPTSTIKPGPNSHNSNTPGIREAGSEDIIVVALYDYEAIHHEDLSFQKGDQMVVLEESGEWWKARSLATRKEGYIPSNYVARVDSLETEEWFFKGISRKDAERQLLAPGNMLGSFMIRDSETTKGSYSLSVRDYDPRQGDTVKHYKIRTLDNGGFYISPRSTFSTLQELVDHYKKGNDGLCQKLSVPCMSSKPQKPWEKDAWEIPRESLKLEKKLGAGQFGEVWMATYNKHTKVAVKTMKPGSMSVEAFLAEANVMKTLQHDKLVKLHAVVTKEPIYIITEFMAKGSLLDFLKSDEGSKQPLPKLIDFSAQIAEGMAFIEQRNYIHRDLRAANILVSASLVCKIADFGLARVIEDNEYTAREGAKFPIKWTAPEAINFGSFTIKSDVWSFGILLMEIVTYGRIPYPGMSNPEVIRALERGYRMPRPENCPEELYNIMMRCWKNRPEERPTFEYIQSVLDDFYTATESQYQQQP

IC50 (BaF3-NRASD12) [nM]	IC50 (BaF3-KRASD12) [nM]	Compound	IC50 (Wt-BaF3) [nM]	GI50 (BaF3-BCR/ABL) [nM]	GI50 (BaF3-TEL-LYN) [nM]	GI50 (BaF3-EML4-ALK) [nM]	GI50 (BaF3-TEL-INSR) [nM]	GI50 (BaF3-TEL-HCK) [nM]	GI50 (BaF3-TEL-TIE1) [nM]	GI50 (BaF3-BCR/ABL-T315I) [nM]
3380	3980	Cc1ccc(NC(=O)c2cccc(C(F)(F)F)c2)cc1N1Cc2cnc(NCCN(C)C)nc2N(C)C1 [IA-2, N-(3-(7-((2-(dimethylamino)ethyl)amino)-1-methyl-1,4-dihydropyrimido[4,5-d]pyrimidin-3(2H)-yl)-4-methylphenyl)-3-(trifluoromethyl)benzamide]	4540	> 10000	1320	~2780	1330	2560	1590	–
2900	4600	Cc1ccc(NC(=O)c2cccc(C(F)(F)F)c2)cc1N1Cc2cnc(Nc3cnn(C)c3)nc2N(C)C1 [IA-10, N-(4-methyl-3-(1-methyl-7-((1-methyl-1H-pyrazol-4-yl)amino)-1,4-dihydropyrimido[4,5-d]pyrimidin-3(2H)-yl)phenyl)-3-(trifluoromethyl)benzamide]	11800	0.251	1430	4640	–	1770	2320	2760
1020	1490	Cc1cc(Nc2ncc3c(n2)N(C)CN(c2cc(NC(=O)c4cccc(C(F)(F)F)c4)ccc2C)C3)n(C)n1 [IA-11, N-(3-(7-((1,3-dimethyl-1H-pyrazol-5-yl)amino)-1-methyl-1,4-dihydropyrimido[4,5-d]pyrimidin-3(2H)-yl)-4-methylphenyl)-3-(trifluoromethyl)benzamide]	13500	7.96	927	2220	2280	1390	736	1760
2300	1820	CCN(CC)c1ccc(Nc2ncc3c(n2)N(C)CN(c2cc(NC(=O)c4cccc(C(F)(F)F)c4)ccc2C)C3)cn1 [IA-12, N-(3-(7-((6-(diethylamino)pyridin-3-yl)amino)-1-methyl-1,4-dihydropyrimido[4,5-d]pyrimidin-3(2H)-yl)-4-methylphenyl)-3-(trifluoromethyl)benzamide]	4110	205	1160	3190	977	3070	1350	4500
501	402	Cc1ccc(NC(=O)c2cccc(C(F)(F)F)c2)cc1N1Cc2cnc(Nc3ccc(N4CCC(O)CC4)nc3)nc2N(C)C1 [IA-13, N-(3-(7-((6-(4-hydroxypiperidin-1-yl)pyridin-3-yl)amino)-1-methyl-1,4-dihydropyrimido[4,5-d]pyrimidin-3(2H)-yl)-4-methylphenyl)-3-(trifluoromethyl)benzamide]	2340	5.85	132	1870	320	192	289	226
404	388	Cc1ccc(NC(=O)c2cccc(C(F)(F)F)c2)cc1N1Cc2cnc(Nc3ccc(N4CCOCC4)nc3)nc2N(C)C1 [IA-15, N-(4-methyl-3-(1-methyl-7-((6-morpholinopyridin-3-yl)amino)-1,4-dihydropyrimido[4,5-d]pyrimidin-3(2H)-yl)phenyl)-3-(trifluoromethyl)benzamide]	1770	4.18	264	1160	902	680	355	132
5970	5840	Cc1ccc(Nc2ncc3c(n2)N(C2CCCC2)CN(c2cc(NC(=O)c4cccc(C(F)(F)F)c4)ccc2C)C3)cn1 [IB-3, N-(3-(1-cyclopentyl-7-((6-methylpyridin-3-yl)amino)-1,4-dihydropyrimido[4,5-d]pyrimidin-3(2H)-yl)-4-methylphenyl)-3-(trifluoromethyl)benzamide]	9710	303	3300	5880	–	3150	3820	9230
4930	5360	Cc1ccc(Nc2ncc3c(n2)N(c2ccccc2)CN(c2cc(NC(=O)c4cccc(C(F)(F)F)c4)ccc2C)C3)cn1 [IB-4, N-(4-methyl-3-(7-((6-methylpyridin-3-yl)amino)-1-phenyl-1,4-dihydropyrimido[4,5-d]pyrimidin-3(2H)-yl)phenyl)-3-(trifluoromethyl)benzamide]	17100	669	4110	> 10000	–	4610	3680	–
> 10000	> 10000	Cc1ccc(Nc2ncc3c(n2)N(C)CN(c2cc(C(=O)NCCO)ccc2C)C3)cn1 [IC-2, N-(2-hydroxyethyl)-4-methyl-3-(1-methyl-7-((6-methylpyridin-3-yl)amino)-1,4-dihydropyrimido[4,5-d]pyrimidin-3(2H)-yl)benzamide]	> 10000	6360	> 10000	> 10000	–	–	> 10000	> 10000
> 10000	> 10000	Cc1ccc(Nc2ncc3c(n2)N(C)CN(c2cc(C(=O)NCCN4CCOCC4)ccc2C)C3)cn1 [IC-3, 4-methyl-3-(1-methyl-7-((6-methylpyridin-3-yl)amino)-1,4-dihydropyrimido[4,5-d]pyrimidin-3(2H)-yl)-N-(2-morpholinoethyl)benzamide]	> 10000	217	> 10000	> 10000	–	–	> 10000	> 10000
> 10000	> 10000	CONC(=O)c1ccc(C)c(N2Cc3cnc(Nc4ccc(C)nc4)nc3N(C)C2)c1 [IC-4, N-methoxy-4-methyl-3-(1-methyl-7-((6-methylpyridin-3-yl)amino)-1,4-dihydropyrimido[4,5-d]pyrimidin-3(2H)-yl)benzamide]	> 10000	63.1	> 10000	> 10000	–	–	> 10000	> 10000
> 10000	> 10000	Cc1ccc(Nc2ncc3c(n2)N(C)CN(c2cccc(NC(=O)c4cccc(C(F)(F)F)c4)c2)C3)cn1 [IC-5, N-(3-(1-methyl-7-((6-methylpyridin-3-yl)amino)-1,4-dihydropyrimido[4,5-d]pyrimidin-3(2H)-yl)phenyl)-3-(trifluoromethyl)benzamide]	29300	940	> 10000	> 10000	–	–	9290	> 10000
8150	10400	COc1ccc(NC(=O)c2cccc(C(F)(F)F)c2)cc1N1Cc2cnc(Nc3ccc(C)nc3)nc2N(C)C1 [IC-6, N-(4-methoxy-3-(1-methyl-7-((6-methylpyridin-3-yl)amino)-1,4-dihydropyrimido[4,5-d]pyrimidin-3(2H)-yl)phenyl)-3-(trifluoromethyl)benzamide]	22800	387	~8230	~9030	–	–	5180	8000

From patent publication US10364247B2, “Preparation and use of novel protein kinase inhibitors” (Ruijin Hospital Affiliated to Shanghai Jiao Tong University …, priority 2015, dated 2019)
